Data published in publication PMC12155096 (International Journal of Molecular Sciences, 2025).
Where two headings read alike, the source gives them in different places.

Assays:
[1] = molecular target: T1, human CYP1A2 (Homo sapiens, UniProt P05177); conditions: for CYP1A2 Efficacy (in parenthesis): human
T1 sequence (P05177 1-516): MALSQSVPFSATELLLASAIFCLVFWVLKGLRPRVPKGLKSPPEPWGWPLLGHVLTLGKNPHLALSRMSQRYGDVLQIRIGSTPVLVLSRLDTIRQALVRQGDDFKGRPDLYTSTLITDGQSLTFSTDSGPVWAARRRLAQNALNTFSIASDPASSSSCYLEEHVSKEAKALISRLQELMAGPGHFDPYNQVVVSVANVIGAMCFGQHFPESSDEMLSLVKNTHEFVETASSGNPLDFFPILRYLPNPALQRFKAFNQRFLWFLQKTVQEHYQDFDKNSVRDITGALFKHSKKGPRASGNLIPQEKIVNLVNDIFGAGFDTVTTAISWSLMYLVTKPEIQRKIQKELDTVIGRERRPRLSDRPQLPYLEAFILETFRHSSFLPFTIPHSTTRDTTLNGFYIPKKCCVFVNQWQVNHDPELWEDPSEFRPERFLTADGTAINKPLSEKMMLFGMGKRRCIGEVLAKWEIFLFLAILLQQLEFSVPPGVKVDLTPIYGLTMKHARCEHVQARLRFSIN

[2] = molecular target: T2, human CYP2C19 (Homo sapiens, UniProt P33261); conditions: for CYP2C19 Efficacy (in parenthesis): human
[3] = molecular target: T3, human CYP2C9 (Homo sapiens, UniProt P11712); test: biochemical
[4] = molecular target: T4, human CYP2D6 (Homo sapiens, UniProt P10635); test: biochemical; conditions: CYP2D6 AC50 (half-maximal activity concentration)
[5] = molecular target: T5, CYP3A4 (Homo sapiens, UniProt P08684); test: biochemical
[6] = molecular target: Photinus pyralis (firefly) luciferase (Photinus pyralis, UniProt P08659); test: biochemical; assay type: biochemical
[7] = molecular target: T3, human CYP2C9; conditions: for CYP2C9 Efficacy (in parenthesis): human
[8] = molecular target: T4, human CYP2D6
[9] = molecular target: T5, CYP3A4
[10] = molecular target: T1, human CYP1A2; test: biochemical
[11] = molecular target: T2, human CYP2C19; test: biochemical
[12] = CYP2C9 AC50 (half-maximal activity concentration)
[13] = CYP3A4 AC50 (half-maximal activity concentration)
[14] = CYP1A2 IC50 (half-maximal inhibitory concentration)
[15] = CYP2C9 IC50 (half-maximal inhibitory concentration)
[16] = CYP2C19 IC50 (half-maximal inhibitory concentration)
[17] = CYP3A4 IC50 (half-maximal inhibitory concentration)
[18] = CYP1A2 AC50 (half-maximal activity concentration)
[19] = CYP2C19 AC50 (half-maximal activity concentration)

Chain of Photinus pyralis (firefly) luciferase (P08659 whole entry): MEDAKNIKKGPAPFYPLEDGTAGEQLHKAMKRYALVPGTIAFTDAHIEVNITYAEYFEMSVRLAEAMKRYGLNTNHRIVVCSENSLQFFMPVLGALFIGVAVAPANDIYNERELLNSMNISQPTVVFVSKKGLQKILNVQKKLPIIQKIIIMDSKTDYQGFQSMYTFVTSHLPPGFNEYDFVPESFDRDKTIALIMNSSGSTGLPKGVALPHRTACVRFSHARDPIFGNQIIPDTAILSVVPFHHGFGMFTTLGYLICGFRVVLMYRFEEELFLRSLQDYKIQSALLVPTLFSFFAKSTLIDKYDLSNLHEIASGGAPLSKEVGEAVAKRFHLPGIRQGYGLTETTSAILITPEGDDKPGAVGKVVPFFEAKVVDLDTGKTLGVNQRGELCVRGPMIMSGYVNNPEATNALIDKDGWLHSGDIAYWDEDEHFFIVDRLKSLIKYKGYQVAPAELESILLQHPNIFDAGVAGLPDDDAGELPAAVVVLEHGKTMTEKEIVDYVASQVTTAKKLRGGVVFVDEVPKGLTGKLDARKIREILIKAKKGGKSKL
T3 sequence (P11712 whole entry): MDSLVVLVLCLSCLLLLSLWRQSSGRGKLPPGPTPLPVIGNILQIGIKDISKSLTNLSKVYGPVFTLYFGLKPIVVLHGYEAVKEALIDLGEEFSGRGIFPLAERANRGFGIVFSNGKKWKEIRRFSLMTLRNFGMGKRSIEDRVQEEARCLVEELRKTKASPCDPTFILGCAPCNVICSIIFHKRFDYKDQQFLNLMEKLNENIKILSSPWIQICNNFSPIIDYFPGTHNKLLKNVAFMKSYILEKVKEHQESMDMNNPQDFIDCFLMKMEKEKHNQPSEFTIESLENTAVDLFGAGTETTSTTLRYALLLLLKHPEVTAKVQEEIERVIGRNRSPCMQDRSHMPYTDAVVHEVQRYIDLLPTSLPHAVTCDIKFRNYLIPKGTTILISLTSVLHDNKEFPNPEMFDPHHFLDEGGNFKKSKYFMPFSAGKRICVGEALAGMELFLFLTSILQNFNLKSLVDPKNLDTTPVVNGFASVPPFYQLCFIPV
T5 sequence (P08684 whole entry): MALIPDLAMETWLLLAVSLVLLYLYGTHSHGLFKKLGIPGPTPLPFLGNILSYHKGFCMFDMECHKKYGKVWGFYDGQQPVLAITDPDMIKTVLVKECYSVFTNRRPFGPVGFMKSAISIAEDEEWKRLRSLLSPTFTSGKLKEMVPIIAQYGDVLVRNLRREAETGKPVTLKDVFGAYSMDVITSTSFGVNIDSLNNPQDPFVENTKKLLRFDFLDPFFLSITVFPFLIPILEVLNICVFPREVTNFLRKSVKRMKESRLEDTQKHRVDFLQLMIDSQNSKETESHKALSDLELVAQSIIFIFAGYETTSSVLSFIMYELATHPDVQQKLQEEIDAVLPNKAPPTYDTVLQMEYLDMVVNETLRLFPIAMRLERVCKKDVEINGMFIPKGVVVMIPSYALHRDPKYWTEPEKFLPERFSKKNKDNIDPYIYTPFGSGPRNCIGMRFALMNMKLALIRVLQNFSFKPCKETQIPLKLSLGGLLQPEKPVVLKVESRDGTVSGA
T4 sequence (P10635 whole entry): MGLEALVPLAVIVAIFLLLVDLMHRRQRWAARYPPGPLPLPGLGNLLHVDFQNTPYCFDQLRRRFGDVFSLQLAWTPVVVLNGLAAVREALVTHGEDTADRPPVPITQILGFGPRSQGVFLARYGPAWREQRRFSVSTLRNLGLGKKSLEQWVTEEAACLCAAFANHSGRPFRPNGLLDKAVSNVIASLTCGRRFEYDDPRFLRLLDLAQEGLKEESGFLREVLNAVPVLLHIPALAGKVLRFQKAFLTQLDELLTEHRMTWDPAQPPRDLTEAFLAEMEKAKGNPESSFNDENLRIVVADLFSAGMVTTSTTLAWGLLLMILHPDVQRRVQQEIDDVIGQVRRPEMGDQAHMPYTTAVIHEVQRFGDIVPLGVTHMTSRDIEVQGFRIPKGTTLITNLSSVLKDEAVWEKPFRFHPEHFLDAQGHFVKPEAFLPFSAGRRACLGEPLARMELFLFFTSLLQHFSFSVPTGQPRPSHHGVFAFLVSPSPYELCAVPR
T2 sequence (P33261 whole entry): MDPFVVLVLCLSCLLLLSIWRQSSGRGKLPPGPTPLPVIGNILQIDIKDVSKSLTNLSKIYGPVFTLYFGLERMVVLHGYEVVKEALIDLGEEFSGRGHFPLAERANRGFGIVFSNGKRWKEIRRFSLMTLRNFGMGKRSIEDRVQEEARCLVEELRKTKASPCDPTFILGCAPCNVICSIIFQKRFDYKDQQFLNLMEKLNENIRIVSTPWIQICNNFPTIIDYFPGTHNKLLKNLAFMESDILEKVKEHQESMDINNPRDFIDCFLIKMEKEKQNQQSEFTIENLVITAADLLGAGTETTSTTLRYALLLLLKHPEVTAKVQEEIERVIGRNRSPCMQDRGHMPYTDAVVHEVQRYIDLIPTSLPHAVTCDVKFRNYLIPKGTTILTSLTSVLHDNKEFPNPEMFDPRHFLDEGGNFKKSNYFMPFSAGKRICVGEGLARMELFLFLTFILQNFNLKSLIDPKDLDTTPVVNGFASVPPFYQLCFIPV

Row | Compound | CYP1A2 AC50 (half-maximal activity concentration) [1] | AC50 [3, 12] [µM] | AC50 [4] [µM] | AC50 [5, 13] [µM] | CYP2C19 Efficacy (in parenthesis) [2] | CYP2D6 IC50 (half-maximal inhibitory concentration) [8] | CYP3A4 Efficacy (in parenthesis) [9] | IC50 [3, 15] [µM] | IC50 [11, 16] [µM] | AC50 [11, 19] [µM] | Luciferase IC50 (half-maximal inhibitory concentration) [6] | other results
1 | O=C(Cl)c1cccc(C(=O)Cl)c1 [1,3-Benzenedicarbonyl dichloride] | Inactive | 68.7 | 24.9 | 26.8 | – | – | – | – | – | – | – | CYP2C19 AC50 (half-maximal activity concentration) [2]: Inactive
2 | Oc1ccc2ccc3cccc4ccc1c2c34 [1-Hydroxypyrene] | – | – | – | – | 15.71 ± 4.38 (-129 ± 16) % | Inactive | 27.72 ± 10.43 (-84 ± 7) % | 35.6 | 15.7 | – | – | IC50 [6]: 68.7 µM; CYP1A2 Efficacy (in parenthesis) [1]: 0.83 ± 0.11 (-98 ± 1) %; CYP2C9 Efficacy (in parenthesis) [7]: 35.57 ± 0 (-80 ± 9) %; IC50 [10, 14]: 0.83 µM; IC50 [5, 17]: 27.7 µM
3 | Brc1ccc(Oc2ccc(Br)cc2Br)c(Br)c1 [2,2'4,4'-Tetrabromodiphenyl ether] | – | 12.7 | – | 13 | 0.55 ± 0.43 (-128 ± 5) % | Inactive | 13.01 ± 6.86 (68 ± 8) % | – | 0.55 | 0.55 | – | IC50 [6]: 44 µM; CYP1A2 Efficacy (in parenthesis) [1]: 16.84 ± 7.26 (-69 ± 6) %; CYP3A4 IC50 (half-maximal inhibitory concentration) [9]: 13.01 ± 6.86 (68 ± 8) µM; AC50 [10, 18]: 16.8 µM; IC50 [10, 14]: 16.8 µM
4 | Brc1c2ccccc2cc2ccccc12 [9-Bromoanthracene] | – | – | – | – | 26.26 ± 8.46 (-125 ± 5) % | Inactive | 25.01 ± 9.91 (-59 ± 38) % | 34.6 | 26.3 | – | – | IC50 [6]: 42.3 µM; CYP1A2 Efficacy (in parenthesis) [1]: 0.51 ± 0.11 (-99 ± 4) %; CYP2C9 Efficacy (in parenthesis) [7]: 34.62 ± 2.26 (-73 ± 9) %; IC50 [10, 14]: 0.51 µM; IC50 [5, 17]: 25 µM
5 | O=C1c2ccccc2Cc2ccccc21 [Anthrone] | – | – | – | – | 15.72 ± 5.91 (-83 ± 4) % | Inactive | 26.66 ± 4.8 (-63 ± 11) % | 12.6 | 15.7 | – | Inactive | CYP1A2 Efficacy (in parenthesis) [1]: 0.44 ± 0.07 (-99 ± 1) %; CYP2C9 Efficacy (in parenthesis) [7]: 12.58 ± 3.51 (-54 ± 8) %; IC50 [10, 14]: 0.44 µM; IC50 [5, 17]: 26.7 µM
6 | O=C(CCCN1CCN(c2ccccn2)CC1)c1ccc(F)cc1 [Azaperone] | Inactive | 5.25 | 12.4 | 5.97 | – | – | – | – | – | 32.7 | – | –
7 | O=c1[nH]c2ccc([S+]([O-])CCN3CCC(Cc4ccc(F)cc4)CC3)cc2o1 (stereo not shown) [Besonprodil] | Inactive | 6.44 | 33 | 21.5 | – | – | – | – | – | 50.9 | – | –
8 | CC1(C)C(C=C(Cl)Cl)C1C(=O)OC(C#N)c1ccc(F)c(Oc2ccccc2)c1 (stereo not shown) [Cyfluthrin] | Inactive | 3.92 | 22.2 | 4.01 | – | – | – | – | – | 10.4 | – | –
9 | CCOP(=S)(OCC)Oc1ccc(Cl)cc1Cl [Dichlofenthion] | – | – | – | – | 0.44 ± 0.11 (-121 ± 28) % | Inactive | 2.22 ± 0.62 (-82 ± 5) % | 3.56 | 0.44 | – | Inactive | CYP1A2 Efficacy (in parenthesis) [1]: 3.07 ± 0.42 (-101 ± 5) %; CYP2C9 Efficacy (in parenthesis) [7]: 3.56 ± 0 (-100 ± 3) %; IC50 [10, 14]: 3.07 µM; IC50 [5, 17]: 2.22 µM
10 | CCOc1ccc(C(C)(C)COCc2cccc(Oc3ccccc3)c2)cc1 [Etofenprox] | Inconclusive inhibitor | 7.13 | 34.3 | 35.7 | – | – | – | – | – | 16.4 | – | –
11 | CC(C)(C(=O)c1cccnc1)c1cccnc1 [Metyrapone] | – | – | – | – | – | Inactive | 0.57 ± 0.16 (-62 ± 5) % | – | – | – | Inactive | CYP1A2 IC50 (half-maximal inhibitory concentration) [1]: Inactive; CYP2C9 IC50 (half-maximal inhibitory concentration) [7]: Inactive; CYP2C19 IC50 (half-maximal inhibitory concentration) [2]: Inactive; IC50 [5, 17]: 0.57 µM
12 | CC1(C)C(C=C(Cl)Cl)C1C(=O)OCc1cccc(Oc2ccccc2)c1 (stereo not shown) [Permethrin] | – | 11.2 | 27.5 | 10.9 | – | – | – | – | – | 5.91 | – | –
13 | Oc1ccc2[nH]cc(CCCCN3CC=C(c4ccccc4)CC3)c2c1 [Roxindole] | – | 21.2 | – | 1.91 | – | – | – | – | – | – | – | Luciferase IC50 [6]: Inactive; CYP2C19 IC50 [2]: Inactive; CYP3A4 IC50 [9]: 1.91 ± 0.48 (802 ± 30) µM; AC50 [10, 18]: 22.4 µM; IC50 ([10]; CYP1A2 IC50): 22.4 µM; IC50 ([3]; CYP2C9 IC50): 21.2 µM
14 | O[Si](c1ccccc1)(c1ccccc1)c1ccccc1 [Triphenylsilanol] | Inconclusive inhibitor | 0.53 | – | 13.7 | – | Inactive | – | 0.53 | 0.57 | 0.57 | Inactive | CYP1A2 IC50 (half-maximal inhibitory concentration) [1]: Inactive; CYP3A4 IC50 (half-maximal inhibitory concentration) [9]: 13.71 ± 1.89 (172 ± 26) µM
15 | COC(=O)C1=C(C)NC(C)=C(C(=O)OCCc2ccc(N3CCN(C(c4ccccc4)c4ccccc4)CC3)cc2)C1c1cccc([N+](=O)[O-])c1 (stereo not shown) [Watanidipine] | – | – | – | – | – | Inactive | – | – | – | – | Inactive | IC50 [10]: 14.6 µM; IC50 [3]: 0.49 µM; IC50 [11]: 8.39 µM; IC50 [5]: 2.38 µM
16 | O=c1c2ccccc2oc2ccccc12 [Xanthone] | – | – | – | – | – | Inactive | – | – | – | – | – | IC50 [6]: 23.6 µM; AC50 [10]: 0.5 µM; IC50 [10]: 0.5 µM; AC50 [3]: 35.7 µM; IC50 [3]: 35.7 µM; AC50 [11]: 29.7 µM; IC50 [11]: 29.7 µM; AC50 [5]: 14.5 µM
17 | Clc1ccc(C(c2ccccc2Cl)C(Cl)(Cl)Cl)cc1 (stereo not shown) [o,p'-DDT] | – | 10.9 | – | 11.6 | 0.35 ± 0.15 (-129 ± 3) % | Inactive | 11.59 ± 3.23 (99 ± 19) % | 10.9 | 0.35 | 0.35 | Inactive | CYP1A2 IC50 (half-maximal inhibitory concentration) [1]: Inactive; CYP2C9 Efficacy (in parenthesis) [7]: 10.87 ± 3.7 (-95 ± 6) %; CYP3A4 IC50 (half-maximal inhibitory concentration) [9]: 11.59 ± 3.23 (99 ± 19) µM
